We go through two substances from patent US20230220047A1, “PEPTIDES FOR TREATMENT OF SEPSIS AND CANCER” (NORWEGIAN UNIVERSITY OF SCIENCE AND TECHNOLOGY (NTNU), priority 2020, published 2023).

In data set [1] the test system is JJN-3 multiple myeloma cells. It is filed as cell-based, human. The note with it: JJN-3, 10 μM. The source says: Minor effects on the proliferation of the IH-1 and RPMI 8226 cell lines are seen. […] The number of viable cells was detected based on quantitation of ATP by luminescent signal in correlation to a standard curve prepared for each cell line. Results are based on 3-5 biological replicates for each condition, error bars show standard deviation of mean.
Multiple myeloma cells JJN-3 (DSMZ (Germany) no. ACC 541), ANBL-6 (Cellosaurus accession number CVCL_5425, obtained from Dr Diane Jelinek, Mayo Clinic, Rochester, Minn.), INA-6 (Cellosaurus accession number CVCL_5209, obtained from Dr M. Gramatzki, University of Erlangen-Nurnberg, Erlangen, Germany), RPMI-8226 (ATCC CCL-155), and IH-1 (Cellosaurus accession number CVCL_WZ44, established from the pleural effusion of a myeloma patient by Myeloma research group, IKOM, NTNU, Trondheim, Norway) were grown in RPMI-1640 (Sigma-Aldrich Norway, Oslo, Norway) supplemented with 100 nM penicillin/streptomycin and 10% FCS, and for ANBL-6, IH-1 and INA-6 cells 2 ng/ml recombinant IL-6 (Gibco, Thermo Fisher Scientific, Waltham, Mass., USA). Murine multiple myeloma Vk*MYC cells were obtained from M.D. Leif Bergsagel (Mayo Clinic, Richester, Minn., USA) and cultured in RPMI-1640 supplemented with 2% human serum (B^+, The blood bank, St Olav's Hospital, Trondheim, Norway), 100 nM penicillin/streptomycin, L-Glutamine (2 mM) and recombinant IL-6 (1 ng/ml). HEK293T (ATCC CRL-3216) were cultured in DMEM with 10% FCS. THP-1 TRAM knockout (KO) and TLR4 KO cell lines, and matching lentivirally transduced control cell lines, were differentiated in the same way as wild type (WT) THP-1. TRAM KO THP-1 cell line is described in Yurchenko et al. (supra).
To evaluate the potential impact of the P7 peptide on proliferation of tumour cells of lymphoid origin, we performed a CellTiter-Glo Luminescent Cell Viability Assay to address proliferation of several multiple myeloma (MM) cell lines. […]

The subject of data set [2] is RPMI 8226 multiple myeloma cells. Kind of data set: CellTiter-Glo cell viability assay, RPMI 8226. It is filed as cell-based, human. To be noted: RPMI 8226, 10 μM, 48 h. How it is done: Minor effects on the proliferation of the IH-1 and RPMI 8226 cell lines are seen. Cells were seeded at the level shown (left-hand bar of each set) then incubated in medium containing water, 10 μM penetratin or 10 μM P7-A4-Pen for 48 hr (except for INA-6 cells, which were incubated with 12.5 μM penetratin or 12.5 μM P7-A4-Pen). The number of viable cells was detected based on quantitation of ATP by luminescent signal in correlation to a standard curve prepared for each cell line. Results are based on 3-5 biological replicates for each condition, error bars show standard deviation of mean.
Multiple myeloma cells JJN-3 (DSMZ (Germany) no. ACC 541), ANBL-6 (Cellosaurus accession number CVCL_5425, obtained from Dr Diane Jelinek, Mayo Clinic, Rochester, Minn.), INA-6 (Cellosaurus accession number CVCL_5209, obtained from Dr M. Gramatzki, University of Erlangen-Nurnberg, Erlangen, Germany), RPMI-8226 (ATCC CCL-155), and IH-1 (Cellosaurus accession number CVCL_WZ44, established from the pleural effusion of a myeloma patient by Myeloma research group, IKOM, NTNU, Trondheim, Norway) were grown in RPMI-1640 (Sigma-Aldrich Norway, Oslo, Norway) supplemented with 100 nM penicillin/streptomycin and 10% FCS, and for ANBL-6, IH-1 and INA-6 cells 2 ng/ml recombinant IL-6 (Gibco, Thermo Fisher Scientific, Waltham, Mass., USA). […]

For data set [3], the system named is ANBL-6 multiple myeloma cells. Kind of data set: CellTiter-Glo cell viability assay, ANBL-6. It is filed as cell-based. In general terms: In ATP-based viability assays light output follows the ATP content of the culture.
Another data set has as its system TLR8. The experiment in a line: qPCR of CL075-induced TLR8-mediated cytokine expression in primary human monocytes. It is filed as cell-based. The note with it: 15 μM, CL075 1 μg/ml. How it is done: Cells were pre-treated with 15 μM peptides for 30 min, followed by addition of LPS (100 ng/ml) (A) or CL075 (1 μg/ml) (B) for 2 or 4 h. Each dot on the graphs corresponds to the average value for one donor, the lines show the mean values for all donors, and error bars indicate the SD.
Total RNA was isolated from the cells using Qiazol reagent #79306 from QIAGEN, and chloroform extraction followed by purification on RNeasy Mini columns with DNAse digestion (Qiagen). cDNA was prepared using the Maxima First Strand cDNA Synthesis Kit for quantitative real-time polymerase chain reaction (RT-qPCR) (Thermo Fisher Scientific) according to the manufacturer's protocol. qPCR was performed using the PerfeCTa qPCR FastMix (Quanta Biosciences) in replicates and cycled in a StepOnePlus™ Real-Time PCR cycler. The following TaqMan® Gene Expression Assays (Applied Biosystems®) were used: IFNβ (Hs01077958_s1), TNF (Hs00174128_m1), TBP (Hs00427620_m1), CXCL10 (Hs01124251_g1), IL-6 (Hs00174131_m1) and IL-1β (Hs01555410_m1), for human cells; Ifnβ (Mm00439552_s1), Tnf (Mm00443258_m1), Tbp (Mm01277042_m1) and II-1β (Mm00434228_m1), for mouse cells. […] Relative expression was calculated using Pfaffl's mathematical model (Pfaffl, Nucleic Acids Research 29(9): e45, 2001). […] Statistical significance was evaluated in GraphPad Prizm 5.03. […] The difference between the two groups was determined by two-tailed t test. […]
A general note: In qPCR the cycle at which signal appears reflects the starting amount.

A further data set deals with murine TLR7. The experiment in a line: TLR7-mediated cytokine expression in murine macrophages (R848). The data set is classed as cell-based, mouse. To be noted: R848 (data not shown). The text has this: Thus, P7-Pen interferes with signaling initiated by human TLR7 and TLR8, but has no effect on signaling via murine TLR7 (murine TLR8 is believed to be non-functional).

Entries after “also recorded” stand apart in the source; their conditions may differ.

Consider “Ac-ITVAASVTLTGRQIKIWFQNRRMKWKK-NH2 [Peptide P7-A4-Pen]”, for which the cell proliferation result is “strongly inhibited cell proliferation” in data set [1] (48 h) and “Minor effects; also recorded: inhibited cell proliferation” in data set [2]. Also, in data set [1] (48 h (LDH assay not shown)), the cell death result is “induced cell death”. In addition, in data set [3] (ANBL-6, 5 μM peptide), the “combination effect with melphalan at low melphalan concentrations” value was “synergistic effect”. For the same substance, the “cytotoxic effect of combination with melphalan relative to peptide or melphalan alone” value in data set [3] (ANBL-6, 5 μM peptide plus melphalan 8-20 μM, 48 h) was “much-enhanced cytotoxic effect”.

Take “Ac-ITVYASVTLTGRQIKIWFQNRRMKWKK-NH2 [Peptide P7-Pen]”: in the data set with TLR8, the “CL075-induced TLR8-mediated IFNβ mRNA expression” value was “inhibited” and the “expression of proinflammatory cytokines” value was “no significant effect”. Also, in the data set on murine TLR7, the TLR7-mediated cytokine expression entry is reported as “no effect”.
